For assay [1], the system named is P. aeruginosa. As to the kind of experiment: Growth curves and IC50 determination in P. aeruginosa. In kind it is cell-based, Pseudomonas aeruginosa (PAO1). The conditions noted are these: M63 media, growth % from OD600 at 13 h, three independent experiments. As to the method:
(§1) Pre-cultures (5 mL LB media) were grown for 12 h at 37° C. and 220 rpm in 50 mL conical tubes (VWR International, PA) covered with an air permeable membrane. The cells were then centrifuged at 4,000 rpm for 10 min, the resultant cell pellets washed twice in M63 media and then diluted in M63 media to OD600=0.01. Stock solutions (100 mM) of analog in DMSO were prepared weekly and stored at 4° C. Prior to initiating experiments in 96 well plates, the analog stock solution was serially diluted to make 10 mM or 1 mM working solutions in DMSO. A small volume of the appropriate working solution was transferred to a glass vial, diluted with DMSO to 30 μL, and then diluted to a final volume of 1.5 mL with pre-culture cell suspension with an OD600=0.01. The resultant cell suspension (200 μL) was transferred to a clear-bottom polystyrene 96 well plate (VWR), and incubated at 35° C. and 205 cpm for 13 h in an Epoch 2 microplate spectrophotometer (Biotek Instruments, Inc., Vermont). The growth curve in the presence of Ciprofloxacin was obtained in the same plate. […] MIC determinations were carried out using standard broth microdilution methods in 48 well plates and modified M63 media. Cells were incubated at 35° C.

For assay [2], the system named is A. baumannii. Kind of assay: MIC determination by broth microdilution in A. baumannii. In kind it is cell-based, Acinetobacter baumannii (AB5075). The conditions noted are these: modified M63 media, 35° C.; for MIC: Acinetobacter baumannii. As to the method: as §1, with “M63” left out, “A small volume of the appropriate working solution was transferred to a glass vial, diluted with DMSO to 30 μL, and then diluted to a final volume of 1.5 mL with pre-culture cell suspension with an OD600=0.01.” left out

The test system of assay [3] is A. baumannii. As to the kind of experiment: Growth curves and IC50 determination in A. baumannii. Format: cell-based, Acinetobacter baumannii (AB5075). The conditions noted are these: AB5075, modified M63 media, 48 well-plates. As to the method: as §1
This idea was tested with A. baumanni AB5075, a highly virulent isolate, which has been proposed as a model strain for the evaluation of pathogenesis and antimicrobial treatments.^66.

In the next assay the target is BfrB (Pseudomonas aeruginosa, UniProt Q9HY79). Kind of assay: STD NMR fragment screening with Bfd competitive displacement. Format: binding. The conditions noted are these: STD NMR with Bfd as specific competitor. The source says:
Fragment Library Screening Using Saturation Transfer Difference (STD) NMR Spectroscopy
Structural information obtained from the BfrB-Bfd complex was used to design a fragment library to screen for molecules that bind BfrB at the Bfd-binding site. […] In addition, fragments capable of π-π stacking were included with both electron rich and deficient aromatic rings. To screen the library in search of fragments that bind BfrB at the Bfd-binding site a competition assay was developed that utilizes saturation transfer difference (STD) NMR spectroscopy. This technique is ideally suited to screen fragments that bind to the large BfrB (˜440 kDa) because protein resonance assignments are not necessary and very low protein concentrations are required. In addition, the large rotational correlation time (τc) of BfrB enhances spin diffusion and therefore saturation transfer within the protein and to the ligand.^51 Two solutions were prepared for each fragment: a solution of the fragment alone, and a solution of the fragment and BfrB. Three spectra were obtained for each fragment. The ^1H spectrum of the fragment alone was used to determine fragment integrity and solubility, the ^1H spectrum of the fragment in the presence of BfrB was used to corroborate that fragment integrity and solubility is not affected by BfrB, and the STD spectrum of the solution containing the fragment and BfrB was used to assess fragment binding. This strategy uncovered 18 compounds that bind BfrB. The specificity criterion for fragment binders, however, is that these bind BfrB specifically at the Bfd-binding site. To eliminate non-specific binders, a displacement strategy was implemented that utilizes Bfd as a specific competitor. For this purpose, a STD spectrum was acquired from a solution containing fragment, BfrB and Bfd. […] These fragments were advanced to the next stage, which was focused on uncovering structural information of fragment binding.

Assay [4] deals with ΔbfrB P. aeruginosa cells. Kind of assay: Growth response of bfrB deletion mutant cells to analog. Format: cell-based, Pseudomonas aeruginosa. The conditions noted are these: M63 + 4 μM Fe; 15 h post-inoculation; viable cells vs untreated control. The method, then:
(§2) To this end, wild type and ΔbfrB cells were cultured in M63 media supplemented with 4 μM Fe, in the presence of different concentrations of analog. […] Since BfrB is not essential, it is likely that the cell can compensate for the absence of the iron storage protein. […] The sudden onset of toxicity observed in the second phase, which is not observed with the wild type cells, is probably related to off-target effects that expose a fitness vulnerability caused by the absence of BfrB. Consequently, it is possible to conclude that the dose-dependent growth defect elicited by 11 or 16 on wild type P. aeruginosa cells is largely a consequence of the interaction between the small molecule inhibitors and BfrB in the bacterial cell. This issue was investigated in additional detail (see below) by probing the phenotypic and biochemical response of wild type cells treated with the small molecule inhibitors.

In assay [5] the test system is wild type P. aeruginosa cells. As to the kind of experiment: Growth response of wild type cells to analog (viable cell count). The conditions noted are these: M63 + 4 μM Fe; 15 h post-inoculation; viable cells vs untreated control. Format: cell-based, Pseudomonas aeruginosa. The method, then:
as §2

Another assay deals with apo-BfrB (Pseudomonas aeruginosa, UniProt Q9HY79). As to the kind of experiment: Fluorescence polarization binding assay, apo-BfrB titrated into fluorescent ligand. The conditions noted are these: fluorescence polarization and intensity near emission λmax. The method, then:
Prior to testing the effect that the 4-substituted isoindoline-1,3-dione derivatives might exert on P. aeruginosa cells, the strength of their interaction with BfrB was evaluated in vitro with a fluorescence polarization assay developed based on the intrinsic fluorescence of the isoindoline-1,3-dione moiety.

The test system of the next assay is A. baumannii cells. As to the kind of experiment: CAS assay for siderophore detection. In kind it is cell-based, Acinetobacter baumannii. The conditions noted are these: analog 64 μM; modified M63 media; 35° C. As to the method: These experiments were carried out in 48 well-plates in a Synergy H1 microplate spectrophotometer as described above for obtaining A. baumannii growth curves. Cultures treated with analog KM-5-25 at 64 μM final concentration were used in these experiments. The cell-free supernatants (25 μL) collected after the 24-h growth curves had been completed was mixed with 175 μL of the CAS assay reagent (10 mM hexadecyltrimethyl ammonium bromide (HDTMA), 1 mM FeCl3·6H2O, 2 mM azurol S-CAS in 145 mM PIPES buffer, pH 5.9).^64 The absorbance at 630 nm was read in an Epoch2 microplate spectrophotometer after 2 h and used to calculate the percent siderophore (PSU) with the aid of equation 3,^65 where Ar is the absorbance of the reference solution (CAS solution and un-inoculated media) and As is the absorbance of the sample (CAS solution and cell-free supernatant). PSU values were normalized to CFU/mL.
The results are illustrated in FIGS. 8A and 8B with observations made when A. baumannii cells are cultured at 35° C. in modified M63 media treated with analogs KM-5-25 and KM-5-35.

Another assay relates to P. aeruginosa PAO1. Kind of assay: Effect of analogs on the potency of fluoroquinolone antibiotics, strain PAO1. The conditions noted are these: data not shown. Format: cell-based, Pseudomonas aeruginosa. As to the method:
The combined treatment was carried out similarly, ensuring that the final concentration of DMSO was 2%.

In assay [6] the test system is P. aeruginosa. The conditions noted are these: literature value; cited from earlier work.

Consider 22 molecules from patent US12251370B2, “Small molecule inhibitors of the BfrB:Bfd interaction” (BOARD OF SUPERVISORS OF LOUISIANA STATE UNIVERSITY AND …, priority 2018, dated 2025).

Converted amounts (≈) assume the structure as drawn.

Chain of BfrB (Q9HY79 whole entry, the tested form may be a part): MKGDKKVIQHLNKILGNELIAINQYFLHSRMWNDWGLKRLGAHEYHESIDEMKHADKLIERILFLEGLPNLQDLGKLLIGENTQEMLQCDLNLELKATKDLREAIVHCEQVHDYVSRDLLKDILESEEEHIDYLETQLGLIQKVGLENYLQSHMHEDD
Chain of apo-BfrB (Q9HY79 whole entry): as the sequence (Q9HY79 whole entry, the tested form may be a part) above

For the molecule “4-((3-(4-Chloro-2-hydroxyphenyl)propyl)amino)isoindoline-1,3-dione [KM-5-66]”, the IC50 is 48 µM in the assay on P. aeruginosa [1] and under 32 µM in the assay on A. baumannii [3]. In the assay on A. baumannii [2], the “A. baumannii MIC” value is 80 to 128 µM.

As to `Cc1cc(NS(=O)(=O)c2ccc(N)cc2)no1` [4-amino-N—(S-methylisoxazol-3-yl)benzenesulfonamide], at BfrB, the “fragment binding to BfrB, STD signal displaced by Bfd” value (from here on “fragment binding to BfrB”) is given as “bind at the Bfd-binding site”.

For the molecule `Brc1cccc(-c2nnn[nH]2)c1` [5-(3-bromophenyl)-1H-tetrazole], the “fragment binding to BfrB” value on BfrB is “bind at the Bfd-binding site”. As to `O=C1NC(=O)c2cc(O)ccc21` [5-hydroxyisoindoline-1,3-dione], at BfrB, the “fragment binding to BfrB” value is on record as “bind at the Bfd-binding site”. On to `CC(=O)c1ccc2c(c1)NC(=O)CO2` [6-acetyl-2H-benzo[b][1,4]oxazin-3(4H)-one], for which the “fragment binding to BfrB” value at BfrB is “bind at the Bfd-binding site”. For `Nc1cccc2c1C(=O)NC2=O` [Analog 8, reference compound], in the assay on P. aeruginosa [1], the “P. aeruginosa IC50” value is “Not active”. As for `O=C1NC(=O)c2c(NCc3ccccc3O)cccc21` [Analog 11, 4-((2-Hydroxybenzyl)amino)isoindoline-1,3-dione], in assay [4], the “growth response of ΔbfrB mutant cells” value is “biphasic growth response”. Moreover, the concentration for half-maximal inhibition (IC50) in the assay with P. aeruginosa [1] (Pseudomonas aeruginosa) is 258 µM. In addition, the “growth response of wild type cells” value in [5] was “monophasic dose-dependent growth defect”. On to `O=C1NC(=O)c2c(NCc3cccc(O)c3)cccc21` [Analog 12, 4-((3-Hydroxybenzyl)amino)isoindoline-1,3-dione], for which, in the assay with P. aeruginosa [1], the “P. aeruginosa IC50” value is “Not active”. For `O=C1NC(=O)c2c(NCCCc3ccc(O)cc3)cccc21` [Analog 13], 201 µM corresponded to half-maximal inhibition with P. aeruginosa [1] (Pseudomonas aeruginosa) (IC50).

Regarding `O=C1NC(=O)c2c(NCCCc3ccc(O)cc3O)cccc21` [Analog 14], the half-inhibitory concentration (IC50) with P. aeruginosa [1] (Pseudomonas aeruginosa) turned out to be 143 µM. In the assay with P. aeruginosa [1] (Pseudomonas aeruginosa), `COc1cc(O)ccc1CCCNc1cccc2c1C(=O)NC2=O` [Analog 15] came in with an IC50 of 227 µM. In the case of `O=C1NC(=O)c2c(NCCCc3cc(F)ccc3O)cccc21` [JAG-005-006, 4-((3-(5-Fluoro-2-hydroxyphenyl)propyl)amino)isoindoline-1,3-dione], 48 µM corresponded to half-maximal inhibition with P. aeruginosa [1] (Pseudomonas aeruginosa) (IC50). Further, the minimum inhibitory concentration (MIC) against A. baumannii [2] worked out at 128 µM (≈ 40.2 µg/mL). Turning to `O=C1NC(=O)c2c(NCc3ccc(Br)cc3O)cccc21` [JAG-005-030, 4-((4-Bromo-2-hydroxybenzyl)amino)isoindoline-1,3-dione], in the assay on A. baumannii [2], the minimal inhibitory concentration (MIC) was in the range of 80 to 128 µM (≈ 27.8 to 44.4 µg/mL). The molecule further showed an IC50 with A. baumannii [3] (Acinetobacter baumannii) of 48 µM. For `O=C1NC(=O)c2c(NCc3cc(Cl)ccc3O)cccc21` [KM-5-25, 4-((5-Chloro-2-hydroxybenzyl)amino)isoindoline-1,3-dione], the IC50 with P. aeruginosa [1] (Pseudomonas aeruginosa) and in the assay with A. baumannii [3] (Acinetobacter baumannii) was 64 µM throughout. Moreover, the Kd at apo-BfrB came to 2.9 ± 1.9 µM. Besides, in the assay on A. baumannii cells, the “siderophores produced relative to untreated control, normalized to CFU/mL” value was “approximately 2 fold”. The minimum inhibitory concentration (MIC) with A. baumannii [2] stood at 128 µM (≈ 38.7 µg/mL). Consider `O=C1NC(=O)c2c(NCc3cc(Br)ccc3O)cccc21` [KM-5-35, 4-((5-Bromo-2-hydroxybenzyl)amino)isoindoline-1,3-dione], for which the half-maximal inhibitory concentration (IC50) with P. aeruginosa [1] (Pseudomonas aeruginosa) stood at 48 µM; with A. baumannii [3] (Acinetobacter baumannii), 64 µM. On apo-BfrB, this molecule registered a dissociation constant Kd of 2 ± 1.4 µM. The “siderophores produced relative to untreated control, normalized to CFU/mL” value in the assay with A. baumannii cells is given as “approximately 2 fold”. This molecule showed an MIC in the assay on A. baumannii [2] of 80 to 128 µM (≈ 27.8 to 44.4 µg/mL). On to `CC(=O)Nc1ccc(Br)cc1` [N-(4-bromophenyl)acetamide], for which the “fragment binding to BfrB” value at BfrB is listed as “bind at the Bfd-binding site”. Same read-out and setting: then `CS(=O)(=O)Nc1ccc(C#N)cc1` [N-(4-cyanophenyl)methanesulfonamide], with “bind at the Bfd-binding site”.

With `CC(C)(O/N=C(\C(=O)N[C@@H]1C(=O)N2C(C(=O)[O-])=C(C[n+]3ccccc3)CS[C@H]12)c1csc(N)n1)C(=O)O` [ceftazidime, reference compound], the “enhancement of antibacterial activity in combination with the small molecule inhibitors of the BfrB-Bfd interaction” value in the assay on P. aeruginosa PAO1 is given as “no enhancement”. Take `O=C(O)c1cn(C2CC2)c2cc(N3CCNCC3)c(F)cc2c1=O` [ciprofloxacin]: the “reported MIC” value in the assay with P. aeruginosa [6] was 0.25 µg/mL. For `CCn1cc(C(=O)O)c(=O)c2cc(F)c(N3CCNCC3)cc21` [norfloxacin], in the assay with P. aeruginosa [6], the “reported MIC” value was 0.9 µg/mL. As for `NC[C@H]1O[C@H](O[C@H]2[C@H](O)[C@@H](O[C@H]3O[C@H](CO)[C@@H](O)[C@H](N)[C@H]3O)[C@H](N)C[C@@H]2N)[C@H](N)C[C@@H]1O` [tobramycin, reference compound], in the assay with P. aeruginosa PAO1, the “enhancement of antibacterial activity in combination with the small molecule inhibitors of the BfrB-Bfd interaction” value is “no enhancement”. Same read-out and setting: then gentamycin [reference compound], with “no enhancement”.
